Experimental data reported in ChEMBL document CHEMBL5223122, “Discovery and preclinical evaluations of GST-HG131, a novel HBV antigen inhibitor for the treatment of chronic hepatitis B infection” (Bioorg Med Chem Lett, 2022).
The source made the active and inactive calls. The rule behind the calls is not given here.

Legend:
[1] = system: Hepatitis B virus; test: Antiviral activity against HBV infected in human HepG2.2.15 assessed as HBV DNA reduction by qPCR method; type: functional, organism-based
[2] = system: Hepatitis B virus; test: Antiviral activity against HBV infected in human HepG2.2.15 assessed as reduction on HBsAg level by ELISA; type: functional, organism-based
[3] = Clearance in C57BL/6 mouse at 1 mg/kg, iv; type: ADME, organism-based; conditions: in vivo
[4] = Volume of distribution in steady state in C57BL/6 mouse at 1 mg/kg, iv; type: ADME, organism-based; conditions: in vivo, read-out: Vdss
[5] = Half life in C57BL/6 mouse at 1 mg/kg, iv; type: ADME, organism-based; conditions: in vivo
[6] = Cmax in C57BL/6 mouse at 2 mg/kg, po; type: ADME, organism-based; set-up: dose 2 mg/kg, route po; conditions: in vivo
[7] = AUC (0-last) in C57BL/6 mouse at 2 mg/kg, po; type: ADME, organism-based; set-up: dose 2 mg/kg, route po; conditions: in vivo
[8] = Oral bioavailability in C57BL/6 mouse at 2 mg/kg; type: ADME, organism-based; conditions: in vivo
[9] = system: Hepatitis B virus; test: In vivo antiviral activity against AAV encapsidated HBV infected in mouse assessed as reduction in HBsAg level at 1 mg/kg, po QD for 4 weeks in presence of (R)-7-(tert-butyl)-2-methoxy-3-(3-methoxypropoxy)-11-oxo-6,7-dihydro-11H-benzo[f]pyrido[1,2-d][1,4]oxazepine-10-carboxylic acid by ELISA; type: functional, organism-based
[10] = system: Hepatitis B virus; test: In vivo antiviral activity against AAV encapsidated HBV infected in mouse assessed as reduction in HBeAg level at 1 mg/kg, po QD for 4 weeks in presence of (R)-7-(tert-butyl)-2-methoxy-3-(3-methoxypropoxy)-11-oxo-6,7-dihydro-11H-benzo[f]pyrido[1,2-d][1,4]oxazepine-10-carboxylic acid by ELISA; type: functional, organism-based
[11] = system: Hepatitis B virus; test: In vivo antiviral activity against AAV encapsidated HBV infected in mouse assessed as reduction in HBV DNA at 1 mg/kg, po QD for 4 weeks in presence of (R)-7-(tert-butyl)-2-methoxy-3-(3-methoxypropoxy)-11-oxo-6,7-dihydro-11H-benzo[f]pyrido[1,2-d][1,4]oxazepine-10-carboxylic acid by qPCR method; type: functional, organism-based
[12] = system: Hepatitis B virus; test: Antiviral activity against HBV infected in human primary hepatocytes assessed as HBV DNA reduction by qPCR method; type: functional, organism-based; conditions: Hepatocyte
[13] = system: Hepatitis B virus; test: Antiviral activity against HBV infected in human primary hepatocytes assessed as reduction on HBsAg level by ELISA; type: functional, organism-based; conditions: Hepatocyte
[14] = system: Hepatitis B virus; test: Antiviral activity against HBV infected in human primary hepatocytes assessed as reduction on HBeAg level by ELISA; type: functional, organism-based; conditions: Hepatocyte
[15] = system: Hepatitis B virus; test: Antiviral activity against HBV infected in human HepG2.2.15 cells assessed as reduction of 3.5 Kb HBV RNA level at 50 nM and incubated for 4 to 48 hrs by Northern blot anlaysis; type: functional, organism-based; conditions: time 4-48 hrs
[16] = Toxicity in mouse infected with AAV encapsidated HBV assessed as change in body weight at 1 mg/kg, po QD for 4 weeks; type: organism-based; conditions: in vivo, 672 h
[17] = Toxicity in mouse infected with AAV encapsidated HBV assessed as change in body weight at 10 mg/kg, po QD for 4 weeks; type: organism-based; conditions: in vivo, 672 h
[18] = system: Hepatitis B virus; test: In vivo antiviral activity against AAV encapsidated HBV infected in mouse assessed as reduction in HBsAg level at 10 mg/kg, po QD for 4 weeks by ELISA; type: functional, organism-based
[19] = system: Hepatitis B virus; test: In vivo antiviral activity against AAV encapsidated HBV infected in mouse assessed as reduction in HBeAg level at 10 mg/kg, po QD for 4 weeks by ELISA; type: functional, organism-based
[20] = Toxicity in rat assessed as organ abnormality at 100 to 300 mg/kg, po QD for 14 days; type: organism-based; conditions: in vivo, 336 h, dose 100-300 mg/kg, time 14 day
[21] = Toxicity in rat assessed as mild myocardial degeneration of heart at 1000 mg/kg, po QD for 14 days; type: organism-based; conditions: in vivo, 336 h, time 14 day
[22] = Toxicity in rat assessed as mild central lobular hepatocyte degeneration of liver at 1000 mg/kg, po QD for 14 days; type: organism-based; conditions: hepatocytes, 336 h, time 14 day
[23] = Toxicity in rat assessed as mild white myeloid lymphocytopenia of spleen at 1000 mg/kg, po QD for 14 days; type: organism-based; conditions: in vivo, 336 h, time 14 day
[24] = Toxicity in rat assessed as moderate acute mucosal inflammation of duodenum at 1000 mg/kg, po QD for 14 days; type: organism-based; conditions: in vivo, 336 h, time 14 day
[25] = Toxicity in rat assessed as mydriasis at 300 to 1000 mg/kg, po; type: organism-based; conditions: in vivo, dose 300-1000 mg/kg
[26] = Toxicity in rat assessed as decrease in normal rectal temperature at 300 mg/kg, po; type: organism-based; conditions: in vivo
[27] = Toxicity in rat assessed as decrease in normal rectal temperature at 1000 mg/kg, po; type: organism-based; conditions: in vivo
[28] = Clearance in Sprague-Dawley rat at 1 mg/kg, iv; type: ADME, organism-based; conditions: in vivo
[29] = Volume of distribution in steady state in Sprague-Dawley rat at 1 mg/kg, iv; type: ADME, organism-based; conditions: in vivo, read-out: Vdss
[30] = Half life in Sprague-Dawley rat at 1 mg/kg, iv; type: ADME, organism-based; conditions: in vivo
[31] = Cmax in Sprague-Dawley rat at 2 mg/kg, po; type: ADME, organism-based; set-up: dose 2 mg/kg, route po; conditions: in vivo
[32] = AUC (0-last) in Sprague-Dawley rat at 2 mg/kg, po; type: ADME, organism-based; set-up: dose 2 mg/kg, route po; conditions: in vivo
[33] = Oral bioavailability in Sprague-Dawley rat at 2 mg/kg; type: ADME, organism-based; conditions: in vivo

Work on `COCCCOc1cc2c(cc1Cl)-c1cc(=O)c(C(=O)O)cn1[C@H](C(C)C)CO2` yielded an EC50 [1] of 8.8 nM, an EC50 [2] of 6.6 nM and a clearance [3] of 32 mL/min/kg. The Vd [4] was 1.7 L/kg, the half-life [5] was 1.6 h and the Cmax [6] was 1310 nM. It also gave an AUC(0-t) [7] of 1.34 µM·h and a bioavailability [8] of 56.3%.

In the case of `CC(C)OC(=O)OCOP(=O)(CO[C@H](C)Cn1cnc2c(N)ncnc21)OCOC(=O)OC(C)C`, the Activity [9] is reported as “inactive”, the Activity [10] is reported as “inactive” and the Activity [11] is reported as “Active”.

With `COCCCOc1cc2c(cc1Cl)-c1cc(=O)c(C(=O)O)cn1[C@H](c1ccccc1)CO2` the EC50 [1] was > 1000 nM and the EC50 [2] was > 1000 nM.

For `C=C1[C@H](CO)[C@@H](O)C[C@@H]1n1cnc2c(=O)[nH]c(N)nc21.O` [ENTECAVIR], the EC50 [12] was 0.0078 nM, the EC50 [13] was > 0.05 nM and the EC50 [14] was > 0.05 nM. The Activity [15] was “inactive” and the Activity [16] was “Non-Toxic”.

With `COCCCOc1cc2c(cc1OC)-c1cc(=O)c(C(=O)O)cn1[C@H](C(C)C)C2` the EC50 [1] was 0.8 nM, the EC50 [2] was 0.8 nM and the Activity [17] was “Non-Toxic”. The Activity [18] was “Active”, the Activity [19] was “Active” and the Activity [20] was “Non-Toxic”. For the same compound, the Activity [21] was “Toxic”, the Activity [22] was “Toxic” and the Activity [23] was “Toxic”. For the same compound, the Activity [24] was “Toxic”, the Activity [25] was “Toxic” and the Activity [26] was “Toxic”. The Activity [27] was “Toxic”.

`COCCCOc1cc2c(cc1Cl)-c1cc(=O)c(C(=O)O)cn1[C@H](C1CC1)CO2` gave an EC50 [1] of 105 nM and an EC50 [2] of 66.2 nM.

`COCCCOc1cc2c(cc1Cl)-c1cc(=O)c(C(=O)O)cn1[C@H](C(C)C)C2` gave an EC50 [1] of 0.8 nM and an EC50 [2] of 0.9 nM.

With `COCCCOc1cc2c(cc1Cl)-c1cc(=O)c(C(=O)O)cn1[C@H](C1CCC1)CO2` the EC50 [1] was 531 nM and the EC50 [2] was 125 nM.

With `COCCCOc1cc2c(cc1Cl)-c1cc(=O)c(C(=O)O)cn1[C@H](C(C)(C)C)CO2` the EC50 [1] was 0.5 nM, the EC50 [2] was 0.7 nM and the clearance [3] was 58.5 mL/min/kg. It also gave a Vd [4] of 4.9 L/kg, a half-life [5] of 6.3 h and a Cmax [6] of 203 nM. The AUC(0-t) [7] was 0.193 µM·h and the bioavailability [8] was 18.3%.

For `COCCCOc1cc2c(cc1Cl)-c1cc(=O)c(C(=O)O)cn1[C@H](C)CO2`, the EC50 [1] was 193 nM and the EC50 [2] was 226 nM.

Work on `COCCCOc1cc2c(cc1C(C)=O)-c1cc(=O)c(C(=O)O)cn1[C@H](C(C)(C)C)CO2` yielded an EC50 [1] of 0.5 nM, an EC50 [2] of 1.3 nM and a clearance [3] of 81 mL/min/kg. The Vd [4] was 2.5 L/kg, the half-life [5] was 0.6 h and the Cmax [6] was 604 nM. It also gave an AUC(0-t) [7] of 0.478 µM·h, a bioavailability [8] of 55.3% and a clearance [28] of 33 mL/min/kg. It also gave a Vd [29] of 1 L/kg, a half-life [30] of 0.8 h and a Cmax [31] of 104 nM. The AUC(0-t) [32] was 0.228 µM·h and the bioavailability [33] was 10.4%.

With `CC[C@@H]1COc2cc(OCCCOC)c(Cl)cc2-c2cc(=O)c(C(=O)O)cn21` the EC50 [1] was 44.7 nM and the EC50 [2] was 47.2 nM.

Compound `COCCCOc1cc2c(cc1Cl)-c1cc(=O)c(C(=O)O)cn1[C@H](CC(C)C)CO2` has an EC50 [1] of 102 nM and an EC50 [2] of 128 nM.

Compound `COCCCOc1ccc(-c2cc(=O)c(C(=O)O)cn2-c2ccccc2C)cc1Cl` has an EC50 [1] of 140 nM and an EC50 [2] of 230 nM.
